Test results published in patent US20140193827A1 (TEVA PHARMACEUTICAL INDUSTRIES, LTD., priority 2013, published 2014).

System: GA-primed murine splenocytes
Assay: Tolerance method for assessing process variability

Substance: glatiramer acetate [GA]
- AVG expression CYHR1 (probe ILMN_1228937): 8.14
- AVG expression MSN (probe ILMN_1229193): 9.736
- AVG expression OTTMUSG00000016644 (probe ILMN_1229197): 7.618
- AVG expression ECM1 (probe ILMN_1229746): 6.806
- AVG expression LTA (probe ILMN_1229804): 8.009
- AVG expression ST7 (probe ILMN_1229827): 7.737
- AVG expression FCRLA (probe ILMN_1229840): 9.907
- AVG expression 4933437K13RIK (probe ILMN_1230045): 9.824
- AVG expression TPI1 (probe ILMN_1230137): 12.52
- AVG expression BATF2 (probe ILMN_1230143): 6.446
- AVG expression CLIC4 (probe ILMN_1230546): 11.15
- AVG expression GM336 (probe ILMN_1230605): 7.6587
- AVG expression LOC270152 (probe ILMN_1231204): 8.329
- AVG expression TPI1 (probe ILMN_1231447): 7.938
- AVG expression CCL5 (probe ILMN_1231814): 8.662
- AVG expression THADA (probe ILMN_1232235): 8.652
- AVG expression ANK (probe ILMN_1232621): 7.123
- AVG expression MAD (probe ILMN_1232668): 7.987
- AVG expression GBP1 (probe ILMN_1233293): 11.66
- AVG expression LOC100045981 (probe ILMN_1233402): 9.335
- AVG expression IL2RA (probe ILMN_1233474): 8.134
- AVG expression C530027B15R1K (probe ILMN_1233501): 8.684
- AVG expression CD27 (probe ILMN_1233589): 8.296
- AVG expression 1110014O20RIK (probe ILMN_1233987): 9.906
- AVG expression PPP3CC (probe ILMN_1233999): 8.724
- AVG expression SCL0002007.1_97 (probe ILMN_1234020): 8.904
- AVG expression TMED8 (probe ILMN_1234054): 8.518
- AVG expression IRGM1 (probe ILMN_1234539): 11.44
- AVG expression TSPAN2 (probe ILMN_1234698): 7.426
- AVG expression IGHA_J00475$V00785_IG_HEAVY—CONSTANT_ALPHA_135 (probe ILMN_1234706): 7.221
- AVG expression AI790298 (probe ILMN_1234746): 6.873
- AVG expression 4630004K05RIK (probe ILMN_1234973): 6.972
- AVG expression PROS1 (probe ILMN_1235499): 8.935
- AVG expression A630072M18RIK (probe ILMN_1235926): 8.781
- AVG expression FCRLA (probe ILMN_1236111): 11.88
- AVG expression RAB11FIP4 (probe ILMN_1236245): 6.42
- AVG expression E130302P19RIK (probe ILMN_1236354): 7.244
- AVG expression 5830496L11RIK (probe ILMN_1236507): 9.309
- AVG expression CAR1 (probe ILMN_1236588): 9.793
- AVG expression SLC25A19 (probe ILMN_1237074): 11.68
- AVG expression DDX25 (probe ILMN_1237338): 6.532
- AVG expression IL7R (probe ILMN_1237567): 6.244
- AVG expression PFKP (probe ILMN_1237695): 10.66
- AVG expression AMPD1 (probe ILMN_1237871): 6.446
- AVG expression AREG (probe ILMN_1238547): 6.514
- AVG expression C130086J11RIK (probe ILMN_1238725): 7.188
- AVG expression KDH (probe ILMN_1239055): 7.064
- AVG expression KLRE1 (probe ILMN_1239346): 6.805
- AVG expression LOC100047934 (probe ILMN_1239397): 10.17
- AVG expression 6430510M02RIK (probe ILMN_1239411): 8.536
- AVG expression CEACAM2 (probe ILMN_1239472): 6.786
- AVG expression NG23 (probe ILMN_1239632): 8.463
- AVG expression KIF1B (probe ILMN_1239729): 7.517
- AVG expression 6030400N17RIK (probe ILMN_1239797): 6.341
- AVG expression PRSS34 (probe ILMN_1239878): 6.278
- AVG expression ANXA3 (probe ILMN_1241171): 8.239
- AVG expression ADRB2 (probe ILMN_1241610): 8.974
- AVG expression TCF7 (probe ILMN_1242308): 8.261
- AVG expression CREM (probe ILMN_1242622): 8.248
- AVG expression AKAP8L (probe ILMN_1242769): 9.971
- AVG expression D630014A15RIK (probe ILMN_1242794): 8.379
- AVG expression A130010J15RIK (probe ILMN_1243150): 8.875
- AVG expression 2810410A03RIK (probe ILMN_1243249): 10.13
- AVG expression A130026C10RIK (probe ILMN_1243621): 9.03
- AVG expression B230369L08RIK (probe ILMN_1244343): 9.9
- AVG expression RASGRP2 (probe ILMN_1244516): 6.8
- AVG expression LOC100044948 (probe ILMN_1244853): 11.36
- AVG expression GBP5 (probe ILMN_1244866): 9.012
- AVG expression SYNGR2 (probe ILMN_1244874): 10.87
- AVG expression CST7 (probe ILMN_1244891): 7.709
- AVG expression F730045P10RIK (probe ILMN_1245300): 7.742
- AVG expression HHEX (probe ILMN_1245731): 9.543
- AVG expression CD84 (probe ILMN_1245754): 6.93
- AVG expression SIAT7C (probe ILMN_1246543): 8.379
- AVG expression C78339 (probe ILMN_1246895): 9.914
- AVG expression BC004728 (probe ILMN_1247198): 10.36
- AVG expression LOC100046770 (probe ILMN_1247199): 8.329
- AVG expression IL3 (probe ILMN_1247309): 9.384
- AVG expression CGEF2-PENDING (probe ILMN_1247893): 8.11
- AVG expression EMP3 (probe ILMN_1248028): 10.05
- AVG expression FASL (probe ILMN_1248413): 6.78
- AVG expression C330023M02RIK (probe ILMN_1248651): 8.865
- AVG expression CD55 (probe ILMN_1248714): 8.2139
- AVG expression GATA3 (probe ILMN_1248843): 8.224
- AVG expression TBX6 (probe ILMN_1249014): 6.934
- AVG expression BCL2 (probe ILMN_1249021): 8.748
- AVG expression MPO (probe ILMN_1249030): 8.41
- AVG expression LOC100046608 (probe ILMN_1249366): 9.365
- AVG expression TSSC6 (probe ILMN_1249740): 6.912
- AVG expression IGF1R (probe ILMN_1249824): 6.78
- AVG expression IGHG (probe ILMN_1249975): 8.895
- AVG expression EIF2AK2 (probe ILMN_1250410): 10.06
- AVG expression C730026J16 (probe ILMN_1251984): 9.459
- AVG expression LYZ2 (probe ILMN_1252076): 8.645
- AVG expression LOC100038894 (probe ILMN_1252295): 6.989
- AVG expression WDR9 (probe ILMN_1252496): 7.625
- AVG expression ACAT2 (probe ILMN_1253008): 9.341
- AVG expression HS3ST1 (probe ILMN_1253182): 8.805
- AVG expression DAPP1 (probe ILMN_1253354): 8.474
- AVG expression WARS (probe ILMN_1254157): 10.36
- AVG expression NISCH (probe ILMN_1254218): 10.29
- AVG expression 4931429I11RIK (probe ILMN_1254314): 6.757
- AVG expression LMNA (probe ILMN_1254405): 8.835
- AVG expression AI607873 (probe ILMN_1254577): 7.533
- AVG expression ACPL2 (probe ILMN_1254634): 7.573
- AVG expression SYPL (probe ILMN_1254669): 10.85
- AVG expression EG240327 (probe ILMN_1254685): 7.154
- AVG expression LMNA (probe ILMN_1255510): 9.57
- AVG expression IL6RA (probe ILMN_1255743): 7.478
- AVG expression KLRD1 (probe ILMN_1255860): 8.506
- AVG expression LOC100047261 (probe ILMN_1256219): 11.14
- AVG expression PML (probe ILMN_1256356): 10.68
- AVG expression MCOLN3 (probe ILMN_1256430): 6.748
- AVG expression SLC6A12 (probe ILMN_1256644): 6.942
- AVG expression LOC100043821 (probe ILMN_1257107): 10.78
- AVG expression SLC37A1 (probe ILMN_1257444): 7.908
- AVG expression LOC638301 (probe ILMN_1257771): 9.6
- AVG expression A130095K04RIK (probe ILMN_1257803): 6.146
- AVG expression D230004N01RIK (probe ILMN_1258197): 8.362
- AVG expression DOK3 (probe ILMN_1258357): 11.45
- AVG expression 5430434G16RIK (probe ILMN_1258364): 8.61
- AVG expression LOC100044376 (probe ILMN_1258587): 9.335
- AVG expression BC106179 (probe ILMN_1258864): 7.749
- AVG expression TMEM66 (probe ILMN_1258965): 10.41
- AVG expression NME7 (probe ILMN_1259075): 8.301
- AVG expression SCIN (probe ILMN_1259174): 9.64
- AVG expression SFT2D2 (probe ILMN_1260046): 10.2783
- AVG expression USP18 (probe ILMN_2054914): 8.225
- AVG expression ADCY7 (probe ILMN_2163572): 8.002
- AVG expression TNFRSF18 (probe ILMN_2419490): 11.07
- AVG expression TNFR5F18 (probe ILMN_2419494): 10.8
- AVG expression BRWD1 (probe ILMN_2421220): 7.59
- AVG expression UBD (probe ILMN_2426853): 8.138
- AVG expression XBP1 (probe ILMN_2431237): 12.27
- AVG expression LOC100048346 (probe ILMN_2433990): 9.203
- AVG expression SCL0002069.1_48 (probe ILMN_2443164): 8.113
- AVG expression MACF1 (probe ILMN_2444984): 7.707
- AVG expression TNFRSF9 (probe ILMN_2445789): 8.963
- AVG expression TNFRSF4 (probe ILMN_2446559): 10.65
- AVG expression IBRDC3 (probe ILMN_2447712): 7.79
- AVG expression MAP4K2 (probe ILMN_2449150): 9.206
- AVG expression DUSP4 (probe ILMN_2450767): 8.696
- AVG expression 6720418B01RIK (probe ILMN_2454823): 7.844
- AVG expression A830080H07RIK (probe ILMN_2457437): 9.842
- AVG expression MAML2 (probe ILMN_2457571): 8.504
- AVG expression AHNAK (probe ILMN_2458765): 8.464
- AVG expression ADAMTSL4 (probe ILMN_2459899): 8.039
- AVG expression WNT10A (probe ILMN_2460094): 7.099
- AVG expression BAMBI-PS1 (probe ILMN_2467190): 7.445
- AVG expression 1110059G02RIK (probe ILMN_2473692): 6.85
- AVG expression 5830411I20 (probe ILMN_2474052): 10.05
- AVG expression CPM (probe ILMN_2476452): 6.679
- AVG expression 1700052O22R1K (probe ILMN_2481117): 9.816
- AVG expression 2210408F11RIK (probe ILMN_2483811): 10.42
- AVG expression 2010005O13RIK (probe ILMN_2488997): 9.797
- AVG expression PKIB (probe ILMN_2490076): 7.096
- AVG expression TRIO (probe ILMN_2491741): 6.611
- AVG expression WISP1 (probe ILMN_2492264): 6.711
- AVG expression AA536717 (probe ILMN_2492284): 6.484
- AVG expression 2310043N10RIK (probe ILMN_2493030): 9.383
- AVG expression UGT1A10 (probe ILMN_2493826): 6.49
- AVG expression 9430080K19RIK (probe ILMN_2500370): 10.17
- AVG expression EG330070 (probe ILMN_2504447): 6.499
- AVG expression A130090K04RIK (probe ILMN_2506039): 8.137
- AVG expression 7530404M11RIK (probe ILMN_2507761): 7.426
- AVG expression NME7 (probe ILMN_2510694): 7.434
- AVG expression 1110046J11RIK (probe ILMN_2513451): 10.16
- AVG expression 7530408C15RIK (probe ILMN_2517611): 7.035
- AVG expression PLA2G12A (probe ILMN_2518483): 6.955
- AVG expression 2010016118RIK (probe ILMN_2520264): 7.54
- AVG expression 3010031K01RIK (probe ILMN_2522460): 9.234
- AVG expression TRIO (probe ILMN_2522750): 8.588
- AVG expression 4930597A21RIK (probe ILMN_2524763): 7.674
- AVG expression CHI3L4 (probe ILMN_2524865): 7.454
- AVG expression LOC240672 (probe ILMN_2531737): 8.095
